Columns and labels:
[1] = target: T1, human progesterone receptor A (Homo sapiens, UniProt P06401); experiment: Progesterone-receptor-antagonistic action in stably transfected SK-N-MC cells, MTV-LUC reporter (PR-A); assay type: cell-based; conditions: antagonistic potency vs 0.1 nmol/l promegestone, 24 hours, luciferase
T1 construct: expressed in transfected cells; host or cells: SK-N-MC human neuroblastoma cells, stably transfected
T1 sequence (P06401 1-769 isoform P06401-2): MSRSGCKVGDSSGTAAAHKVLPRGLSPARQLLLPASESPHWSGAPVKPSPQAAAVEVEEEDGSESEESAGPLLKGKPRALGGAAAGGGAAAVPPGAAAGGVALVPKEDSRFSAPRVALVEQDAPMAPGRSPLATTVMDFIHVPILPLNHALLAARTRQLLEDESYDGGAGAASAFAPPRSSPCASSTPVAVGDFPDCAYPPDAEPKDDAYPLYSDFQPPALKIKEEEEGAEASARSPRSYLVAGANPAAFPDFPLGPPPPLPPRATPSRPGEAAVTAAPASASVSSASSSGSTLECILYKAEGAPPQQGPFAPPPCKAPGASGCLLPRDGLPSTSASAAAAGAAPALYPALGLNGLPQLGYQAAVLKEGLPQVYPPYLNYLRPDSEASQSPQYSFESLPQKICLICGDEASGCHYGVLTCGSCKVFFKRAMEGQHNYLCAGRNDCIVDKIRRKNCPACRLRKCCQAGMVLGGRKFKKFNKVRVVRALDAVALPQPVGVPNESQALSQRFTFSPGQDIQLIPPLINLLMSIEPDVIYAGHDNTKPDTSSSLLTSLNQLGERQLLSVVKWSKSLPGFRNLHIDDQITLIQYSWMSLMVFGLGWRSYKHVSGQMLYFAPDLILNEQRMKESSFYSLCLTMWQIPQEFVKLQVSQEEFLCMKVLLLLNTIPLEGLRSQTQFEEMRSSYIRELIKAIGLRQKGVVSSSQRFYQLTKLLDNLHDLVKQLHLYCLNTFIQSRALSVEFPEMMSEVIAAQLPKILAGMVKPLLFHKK
In short: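 SK-N-MC neuroblastoma cells stably expressing human PR-B or PR-A plus MMTV-LUC reporter, treated 24 h with 0.1 nmol/l promegestone plus test compound at 0.01 nmol/l–1 μmol/l. Luciferase in lysates read as RLU; values as % efficacy and IC50.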

[2] = target: T2, human progesterone receptor B (Homo sapiens, UniProt P06401); experiment: Progesterone-receptor-antagonistic action in stably transfected SK-N-MC cells, MTV-LUC reporter (PR-B); assay type: cell-based; conditions: antagonistic potency vs 0.1 nmol/l promegestone, 24 hours, luciferase
T2 construct: expressed in transfected cells; host or cells: SK-N-MC human neuroblastoma cells, stably transfected
T2 sequence (P06401 1-933): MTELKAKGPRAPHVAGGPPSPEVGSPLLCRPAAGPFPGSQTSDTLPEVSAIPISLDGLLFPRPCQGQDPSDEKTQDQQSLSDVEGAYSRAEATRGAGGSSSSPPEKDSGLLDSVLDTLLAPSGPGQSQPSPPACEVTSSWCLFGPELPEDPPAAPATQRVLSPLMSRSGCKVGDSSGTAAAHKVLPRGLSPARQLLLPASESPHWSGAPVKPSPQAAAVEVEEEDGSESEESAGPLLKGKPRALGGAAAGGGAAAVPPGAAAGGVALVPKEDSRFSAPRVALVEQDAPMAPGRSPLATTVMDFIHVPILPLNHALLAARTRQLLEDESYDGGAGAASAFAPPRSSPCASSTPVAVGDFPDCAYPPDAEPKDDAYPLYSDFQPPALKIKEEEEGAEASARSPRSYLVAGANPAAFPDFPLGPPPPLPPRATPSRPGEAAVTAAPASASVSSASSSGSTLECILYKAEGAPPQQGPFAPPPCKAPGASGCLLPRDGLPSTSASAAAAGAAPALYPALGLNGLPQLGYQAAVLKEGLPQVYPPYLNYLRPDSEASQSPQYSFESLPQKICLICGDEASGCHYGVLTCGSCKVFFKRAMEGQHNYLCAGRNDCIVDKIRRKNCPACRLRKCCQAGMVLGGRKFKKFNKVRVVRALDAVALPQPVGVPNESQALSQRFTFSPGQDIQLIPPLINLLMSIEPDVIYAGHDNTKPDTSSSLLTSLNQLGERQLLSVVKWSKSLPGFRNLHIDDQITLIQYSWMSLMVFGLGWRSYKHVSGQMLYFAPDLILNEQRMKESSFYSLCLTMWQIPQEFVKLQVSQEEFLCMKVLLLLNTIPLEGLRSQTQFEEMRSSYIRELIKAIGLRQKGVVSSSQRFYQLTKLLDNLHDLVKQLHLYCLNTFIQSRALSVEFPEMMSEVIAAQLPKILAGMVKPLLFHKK
Experimental: Progesterone-Receptor-Antagonistic Action in Stable Transfectants of Human Neuroblastoma Cells (SK-N-MC Cells) with the Human Progesterone A or Progesterone B Receptor and an MTV-LUC Reporter Construct
SK-N-MC cells (human neuroblastoma cells) that have been stably transfected with plasmids that express the human progesterone receptor B (pRChPR-B-neo) or the human progesterone receptor A (pRChPR-A-neo) and a reporter construct (pMMTV-LUC), were incubated for 24 hours either in the absence (negative control) or in the presence of increasing amounts of the particular test compound (0.01 nmol/l, 0.1 nmol/l, 1 nmol/l, 10 nmol/l, 100 nmol/l and 1 μmol/l), to determine the agonistic efficacy. As positive control of reporter gene induction, the cells were treated with the synthetic gestagen promegestone (0.01 nmol/l, 0.1 nmol/l, 1 nmol/l, 10 nmol/l, 100 nmol/l and 1 μmol/l). For determination of the antagonistic activity, the cells were treated with 0.1 nmol/l promegestone and additionally with increasing amounts of the particular test compound (0.01 nmol/l, 0.1 nmol/l, 1 nmol/l, 10 nmol/l, 100 nmol/l and 1 μmol/l). The activity of the reporter gene LUC (LUC=luciferase) was determined in the cell lysates and was measured as RLU (relative light units). All measured values are given as % efficacy and as EC50 or IC50 concentrations.

| SMILES | IC50 [1] | IC50 [2] |
| --- | --- | --- |
| CN(C)C(=O)c1ccc([C@H]2C[C@@]3(C)[C@@H](CC[C@@]3(O)C(F)(F)C(F)(F)F)[C@@H]3CCC4=CC(=O)CCC4=C32)cc1 [Example 2, 4-[(11β,17β)-17-Hydroxy-3-oxo-17-(pentafluoroethyl)estra-4,9-dien-11-yl]-N,N-dimethylbenzamide] | 2.3 nM | 1.2 nM |
| CN1CCN(C(=O)c2ccc([C@H]3C[C@@]4(C)[C@@H](CC[C@@]4(O)C(F)(F)C(F)(F)F)[C@@H]4CCC5=CC(=O)CCC5=C43)cc2)CC1 [Example 3, (11β,17β)-17-hydroxy-11-{4-[(4-methylpiperazin-1-yl)carbonyl]phenyl}-17-(pentafluoroethyl)estra-4,9-dien-3-one] | 24 nM | 44 nM |
| CC(C)(C)OC(=O)N1CCN(C(=O)c2ccc([C@H]3C[C@@]4(C)[C@@H](CC[C@@]4(O)C(F)(F)C(F)(F)F)[C@@H]4CCC5=CC(=O)CCC5=C43)cc2)CC1 [Example 4, tert-butyl-4-{4-[(11β,17β)-17-hydroxy-3-oxo-17-(pentafluoroethyl)estra-4,9-dien-11-yl]benzoyl}piperazine-1-carboxylate] | 0.62 nM | 1.6 nM |
| C[C@]12C[C@H](c3ccc(C(=O)N4CCCCC4)cc3)C3=C4CCC(=O)C=C4CC[C@H]3[C@@H]1CC[C@@]2(O)C(F)(F)C(F)(F)F [Example 5, (11β,17β)-17-hydroxy-17-(pentafluoroethyl)-11-[4-(piperidin-1-ylcarbonyl)phenyl]estra-4,9-dien-3-one] | 4.7 nM | 5 nM |
| COC(=O)C1CCN(C(=O)c2ccc([C@H]3C[C@@]4(C)[C@@H](CC[C@@]4(O)C(F)(F)C(F)(F)F)[C@@H]4CCC5=CC(=O)CCC5=C43)cc2)CC1 [Example 6, methyl-1-{4-[(11β,17β)-17-hydroxy-3-oxo-17-(pentafluoroethyl)estra-4,9-dien-11-yl]benzoyl}piperidine-4-carboxylate] | 9.1 nM | 11 nM |
| CN(C)CCNC(=O)c1ccc([C@H]2C[C@@]3(C)[C@@H](CC[C@@]3(O)C(F)(F)C(F)(F)F)[C@@H]3CCC4=CC(=O)CCC4=C32)cc1 [Example 7, N-[2-(dimethylamino)ethyl]-4-[(11β,17β)-17-hydroxy-3-oxo-17-(pentafluoroethyl)estra-4,9-dien-11-yl]benzamide] | 54 nM | 30 nM |
| CN(C)CCCNC(=O)c1ccc([C@H]2C[C@@]3(C)[C@@H](CC[C@@]3(O)C(F)(F)C(F)(F)F)[C@@H]3CCC4=CC(=O)CCC4=C32)cc1 [Example 8, N-[3-(dimethylamino)propyl]-4-[(11β,17β)-17-hydroxy-3-oxo-17-(pentafluoroethyl)estra-4,9-dien-11-yl]benzamide] | 47 nM | 33 nM |
| CN(C)CCN(C)C(=O)c1ccc([C@H]2C[C@@]3(C)[C@@H](CC[C@@]3(O)C(F)(F)C(F)(F)F)[C@@H]3CCC4=CC(=O)CCC4=C32)cc1 [Example 9, N-[2-(dimethylamino)ethyl]-4-[(11β,17β)-17-hydroxy-3-oxo-17-(pentafluoroethyl)estra-4,9-dien-11-yl]-N-methylbenzamide] | 23 nM | 18 nM |
| COC(=O)c1ccccc1NC(=O)c1ccc([C@H]2C[C@@]3(C)[C@@H](CC[C@@]3(O)C(F)(F)C(F)(F)F)[C@@H]3CCC4=CC(=O)CCC4=C32)cc1 [Example 10, methyl-2-({4-[(11β,17β)-17-hydroxy-3-oxo-17-(pentafluoroethyl)estra-4,9-dien-11-yl]benzoyl}amino)benzoate] | 0.7 nM | 1 nM |
| C[C@]12C[C@H](c3ccc(C(=O)N4CCNCC4)cc3)C3=C4CCC(=O)C=C4CC[C@H]3[C@@H]1CC[C@@]2(O)C(F)(F)C(F)(F)F [Example 73, (11β,17β)-17-Hydroxy-17-(pentafluoroethyl)-11-[4-(piperazin-1-ylcarbonyl)phenyl]estra-4,9-dien-3-one] | 47 nM | 120 nM |
| CC(=O)N1CCN(C(=O)c2ccc([C@H]3C[C@@]4(C)[C@@H](CC[C@@]4(O)C(F)(F)C(F)(F)F)[C@@H]4CCC5=CC(=O)CCC5=C43)cc2)CC1 [Example 74, (11β,17β)-11-{4-[(4-Acetylpiperazin-1-yl)carbonyl]phenyl}-17-hydroxy-17-(pentafluoroethyl)estra-4,9-dien-3-one] | 6.7 nM | 12 nM |
| C[C@]12C[C@H](c3ccc(C(=O)N4CCC(C(=O)O)CC4)cc3)C3=C4CCC(=O)C=C4CC[C@H]3[C@@H]1CC[C@@]2(O)C(F)(F)C(F)(F)F [Example 75, 1-{4-[(11β,17β)-17-Hydroxy-3-oxo-17-(pentafluoroethyl)estra-4,9-dien-11-yl]benzoyl}piperidine-4-carboxylic acid] | 23 nM | 10 nM |
| C[C@]12C[C@H](c3ccc(C(=O)Nc4ccccc4C(=O)O)cc3)C3=C4CCC(=O)C=C4CC[C@H]3[C@@H]1CC[C@@]2(O)C(F)(F)C(F)(F)F [Example 76, 2-({4-[(11β,17β)-17-Hydroxy-3-oxo-17-(pentafluoroethyl)estra-4,9-dien-11-yl]benzoyl}amino)benzoic acid] | 0.5 nM |  |
| C[C@]12C[C@H](c3ccc(C(=O)Nc4cccc(C(=O)O)c4)cc3)C3=C4CCC(=O)C=C4CC[C@H]3[C@@H]1CC[C@@]2(O)C(F)(F)C(F)(F)F [Example 77, 3-({4-[(11β,17β)-17-Hydroxy-3-oxo-17-(pentafluoroethyl)estra-4,9-dien-11-yl]benzoyl}amino)benzoic acid] | 140 nM |  |
| C[C@]12C[C@H](c3ccc(C(=O)Nc4ccc(C(=O)O)cc4)cc3)C3=C4CCC(=O)C=C4CC[C@H]3[C@@H]1CC[C@@]2(O)C(F)(F)C(F)(F)F [Example 78, 4-({4-[(11β,17β)-17-Hydroxy-3-oxo-17-(pentafluoroethyl)estra-4,9-dien-11-yl]benzoyl}amino)benzoic acid] | 9.6 nM |  |
